From US9326506B2, “Preparation method, agricultural composition and applications of natural brassinolide analogs” (CHENGDU NEWSUN CROPSCIENCE CO., LTD, priority 2012, dated 2016)

Test system: rice
Assay: Low temperature assay on rice seedlings
Type: in vivo
Procedure: According to a low temperature assay, we measured parameters including plant height, number of leaf, area of leaf, number of tiller, weight of root at low temperature to completely determine effects of the natural brassinolide analogues on the resistance to low temperature of a plant.
The natural brassinolide analogues, BR1, BR2, BR3, BR4, BR5 and BR6, used herein, were those prepared by the method of Example 1. Respectively the analogues were dissolved into 95% (V/V) ethanol solution, and then diluted with pure water to 1 mg/L, 0.1 mg/L, 0.01 mg/L, 0.001 mg/L and 0.0001 mg/L. In addition, pure water was used as a control.
After rice seeds were disinfected by using 5% sodium hypochlorite solution treatment, they were rinsed with distilled water until their pH>7, placed into a petri dish in a dark incubator, and cultured by using water at 30° C.±2° C. for 9 days. Then respectively the nine-day-old etiolated seedlings of rice were immersed in the above solutions containing different concentrations of the natural brassinolide analogues or pure water, and cultured at the temperature of 1° C., 2° C., 3° C., 4° C. and 5° C. for 24 hr. The parameters including plant height, area of leaf and weight of root after 3, 6, 9 and 12 days and number of leaf and number of tiller after 12 days were measured.

## C=C(C(C)C)[C@@H](O)[C@H](O)[C@@H](C)[C@H]1CCC2C3COC(=O)C4C[C@H](O)[C@H](O)C[C@]4(C)C3CC[C@@]21C (stereo partly shown) [BR3]
0.01 mg/l, 3 °C, 9 days
  Height: 7.5 cm
  Weight of root: 2.9 g
0.01 mg/l, 3 °C, 12 days
  Area of leaf: 13.2 cm^2
  Height: 7.8 cm
  Number of leaf: 3
  Number of tiller: 2
  Weight of root: 2.9 g
0.01 mg/l, 4 °C, 3 days
  Area of leaf: 10.8 cm^2
  Height: 7.1 cm
  Weight of root: 2.5 g
0.01 mg/l, 4 °C, 6 days
  Area of leaf: 12.4 cm^2
  Height: 7.4 cm
  Weight of root: 2.6 g
0.01 mg/l, 4 °C, 9 days
  Area of leaf: 13 cm^2
  Height: 7.7 cm
  Weight of root: 2.9 g
0.01 mg/l, 4 °C, 12 days
  Area of leaf: 13.5 cm^2
  Height: 7.8 cm
  Number of leaf: 3
  Number of tiller: 2
  Weight of root: 3.0 g
0.01 mg/l, 5 °C, 3 days
  Area of leaf: 10.3 cm^2
  Height: 7.4 cm
  Weight of root: 2.8 g
0.01 mg/l, 5 °C, 6 days
  Area of leaf: 13.1 cm^2
  Height: 7.6 cm
  Weight of root: 3.0 g
0.01 mg/l, 5 °C, 9 days
  Area of leaf: 16.4 cm^2
  Height: 7.8 cm
  Weight of root: 3.4 g
0.01 mg/l, 5 °C, 12 days
  Area of leaf: 17 cm^2
  Height: 8.2 cm
  Number of leaf: 4
  Number of tiller: 3
  Weight of root: 3.9 g
0.1 mg/l, 1 °C, 3 days
  Area of leaf: 10.1 cm^2
  Height: 7.1 cm
  Weight of root: 2.8 g
0.1 mg/l, 1 °C, 6 days
  Area of leaf: 11 cm^2
  Height: 7.2 cm
  Weight of root: 2.9 g
0.1 mg/l, 1 °C, 9 days
  Area of leaf: 12.1 cm^2
  Height: 7.3 cm
  Weight of root: 3.4 g
0.1 mg/l, 1 °C, 12 days
  Area of leaf: 13.1 cm^2
  Height: 7.4 cm
  Number of leaf: 3
  Number of tiller: 3
  Weight of root: 3.6 g
0.1 mg/l, 2 °C, 3 days
  Area of leaf: 10.4 cm^2
  Height: 7.1 cm
  Weight of root: 2.8 g
0.1 mg/l, 2 °C, 6 days
  Area of leaf: 11.2 cm^2
  Height: 7.3 cm
  Weight of root: 3.0 g
0.1 mg/l, 2 °C, 9 days
  Area of leaf: 12.6 cm^2
  Height: 7.3 cm
  Weight of root: 3 g
0.1 mg/l, 2 °C, 12 days
  Area of leaf: 13.2 cm^2
  Height: 7.4 cm
  Number of leaf: 3
  Number of tiller: 3
  Weight of root: 3.2 g
0.1 mg/l, 3 °C, 3 days
  Area of leaf: 10.5 cm^2
  Height: 7.3 cm
  Weight of root: 2.5 g
0.1 mg/l, 3 °C, 6 days
  Area of leaf: 12 cm^2
  Height: 7.4 cm
  Weight of root: 2.7 g
0.1 mg/l, 3 °C, 9 days
  Area of leaf: 12.1 cm^2
  Height: 7.8 cm
  Weight of root: 2.7 g
0.1 mg/l, 3 °C, 12 days
  Area of leaf: 13.4 cm^2
  Height: 7.9 cm
  Number of leaf: 3
  Number of tiller: 2
  Weight of root: 2.9 g
0.1 mg/l, 4 °C, 3 days
  Area of leaf: 10.8 cm^2
  Height: 7.4 cm
  Weight of root: 2.5 g
0.1 mg/l, 4 °C, 6 days
  Area of leaf: 12 cm^2
  Height: 7.4 cm
  Weight of root: 2.7 g
0.1 mg/l, 4 °C, 9 days
  Area of leaf: 13.4 cm^2
  Height: 7.8 cm
  Weight of root: 2.9 g
0.1 mg/l, 4 °C, 12 days
  Area of leaf: 13.4 cm^2
  Height: 8.1 cm
  Number of leaf: 3
  Number of tiller: 2
  Weight of root: 3.1 g
0.1 mg/l, 5 °C, 3 days
  Area of leaf: 11 cm^2
  Height: 7.5 cm
  Weight of root: 2.9 g
0.1 mg/l, 5 °C, 6 days
  Area of leaf: 12.1 cm^2
  Height: 7.5 cm
  Weight of root: 3.2 g
0.1 mg/l, 5 °C, 9 days
  Area of leaf: 16.2 cm^2
  Height: 8 cm
  Weight of root: 3.5 g
0.1 mg/l, 5 °C, 12 days
  Area of leaf: 17.9 cm^2
  Height: 8.1 cm
  Number of leaf: 3
  Number of tiller: 2
  Weight of root: 4.1 g
1 mg/l, 1 °C, 3 days
  Area of leaf: 10 cm^2
  Height: 7.2 cm
  Weight of root: 2.6 g
1 mg/l, 1 °C, 6 days
  Area of leaf: 11 cm^2
  Height: 7.2 cm
  Weight of root: 3.1 g
1 mg/l, 1 °C, 9 days
  Area of leaf: 12.4 cm^2
  Height: 7.3 cm
  Weight of root: 3.1 g
1 mg/l, 1 °C, 12 days
  Area of leaf: 13 cm^2
  Height: 7.9 cm
  Number of leaf: 3
  Number of tiller: 3
  Weight of root: 3.7 g
1 mg/l, 2 °C, 3 days
  Area of leaf: 10.2 cm^2
  Height: 7.2 cm
  Weight of root: 2.6 g
1 mg/l, 2 °C, 6 days
  Area of leaf: 11.7 cm^2
  Height: 7.2 cm
  Weight of root: 3.0 g
1 mg/l, 2 °C, 9 days
  Area of leaf: 12 cm^2
  Height: 7.4 cm
  Weight of root: 3.2 g
1 mg/l, 2 °C, 12 days
  Area of leaf: 13 cm^2
  Height: 8 cm
  Number of leaf: 3
  Number of tiller: 3
  Weight of root: 3.7 g
1 mg/l, 3 °C, 3 days
  Area of leaf: 10.4 cm^2
  Height: 7.4 cm
  Weight of root: 2.5 g
1 mg/l, 3 °C, 6 days
  Area of leaf: 12 cm^2
  Height: 7.5 cm
  Weight of root: 2.6 g
1 mg/l, 3 °C, 9 days
  Area of leaf: 12 cm^2
  Height: 7.7 cm
  Weight of root: 2.7 g
1 mg/l, 3 °C, 12 days
  Area of leaf: 13.2 cm^2
  Height: 8.1 cm
  Number of leaf: 3
  Number of tiller: 2
  Weight of root: 2.9 g
1 mg/l, 4 °C, 3 days
  Area of leaf: 10.9 cm^2
  Height: 7.4 cm
  Weight of root: 2.5 g
1 mg/l, 4 °C, 6 days
  Area of leaf: 12 cm^2
  Height: 7.5 cm
  Weight of root: 2.7 g
1 mg/l, 4 °C, 9 days
  Area of leaf: 13.2 cm^2
  Height: 7.8 cm
  Weight of root: 3.0 g
1 mg/l, 4 °C, 12 days
  Area of leaf: 14 cm^2
  Height: 8.2 cm
  Number of leaf: 3
  Number of tiller: 2
  Weight of root: 3.2 g
1 mg/l, 5 °C, 3 days
  Area of leaf: 11.1 cm^2
  Height: 7.4 cm
  Weight of root: 2.9 g
1 mg/l, 5 °C, 6 days
  Area of leaf: 13.1 cm^2
  Height: 7.5 cm
  Weight of root: 3.5 g
1 mg/l, 5 °C, 9 days
  Area of leaf: 18 cm^2
  Height: 8.2 cm
  Weight of root: 3.7 g
1 mg/l, 5 °C, 12 days
  Area of leaf: 20 cm^2
  Height: 8.3 cm
  Number of leaf: 3
  Number of tiller: 2
  Weight of root: 4.5 g
